Source: US20190381025A1, “SOLID DISPERSIONS OF (R)-N-((4-METHOXY-6-METHYL-2-OXO-1,2-DIHYDROPYRIDIN-3-YL)METHYL)-2-METHYL-1-(1-(1-(2,2,2-TRIFLUOROETHYL)PIPERIDIN-4-YL)ETHYL)-1H-INDOLE-3-CARBOXAMIDE” (Constellation Pharmaceuticals, Inc., priority 2017, published 2019)

Assay: pharmacokinetic studies (PK) of solid dispersions in fasted, famotidine or pentagastrin pre-treated dogs
Type: in vivo
Settings: above pH 2.5; dogs following pre-treatment with famotidine (FIG. 1)
Experimental: Several rounds of pharmacokinetic studies (PK) were performed and included four diverse solid dispersions comprising 50 wt % amorphous (R)—N-((4-methoxy-6-methyl-2-oxo-1,2-dihydropyridin-3-yl)methyl)-2-methyl-1-(1-(1-(2,2,2-trifluoroethyl)piperidin-4-yl)ethyl)-1H-indole-3-carboxamide and PVP, PVP-PA with NaHCO3, HPMC, and HPMC-AS polymer systems, in fasted, famotidine treated dogs at a 30 mg/kg dose.
All solid dispersions were prepared as aqueous suspensions at 60 mg/mL in the toxicology vehicle, 0.5% MC/0.1% Tween 80 and does with 30 minutes of preparation. All dogs tested were carried over from study to study.

- absorption: reduced absorption
SMILES: COc1cc(C)[nH]c(=O)c1CNC(=O)c1c(C)n([C@H](C)C2CCN(CC(F)(F)F)CC2)c2ccccc12 [(R)—N-((4-methoxy-6-methyl-2-oxo-1,2-dihydropyridin-3-yl)methyl)-2-methyl-1-(1-(1-(2,2,2-trifluoroethyl)piperidin-4-yl)ethyl)-1H-indole-3-carboxamide]
